Test results reported in patent publication US10087148B2, “Quinazolines as biogenic amine transport modulators” (THE UNITED STATES OF AMERICA AS REPRESENTED BY THE …, priority 2014, dated 2018).
Entries after “also recorded” stand apart in the source; their conditions may differ.

Legend:
Type in all cases: biochemical
[1] = target: serotonin transporter (SERT) (Rattus norvegicus (Rat), UniProt P31652); experiment: [3H]serotonin (5-HT) uptake inhibition in rat brain synaptosomes; conditions: mean ± S.D.; n = 3
Chain of serotonin transporter (SERT) (P31652 whole entry): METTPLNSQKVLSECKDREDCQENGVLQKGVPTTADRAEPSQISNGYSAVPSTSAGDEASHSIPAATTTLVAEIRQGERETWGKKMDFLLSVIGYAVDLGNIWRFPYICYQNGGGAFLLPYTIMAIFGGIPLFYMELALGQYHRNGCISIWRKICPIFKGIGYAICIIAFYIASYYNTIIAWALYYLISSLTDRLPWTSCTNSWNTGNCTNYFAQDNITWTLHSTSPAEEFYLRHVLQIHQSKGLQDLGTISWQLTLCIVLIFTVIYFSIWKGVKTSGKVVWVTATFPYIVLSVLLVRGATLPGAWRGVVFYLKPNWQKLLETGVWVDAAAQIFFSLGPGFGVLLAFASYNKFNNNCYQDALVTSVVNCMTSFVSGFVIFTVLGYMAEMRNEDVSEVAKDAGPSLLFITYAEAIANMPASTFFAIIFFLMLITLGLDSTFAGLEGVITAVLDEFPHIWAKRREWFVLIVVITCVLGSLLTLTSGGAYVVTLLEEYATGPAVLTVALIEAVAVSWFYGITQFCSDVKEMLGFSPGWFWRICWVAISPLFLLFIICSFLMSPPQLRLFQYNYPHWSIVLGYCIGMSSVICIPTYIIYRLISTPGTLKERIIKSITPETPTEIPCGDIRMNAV
Method: Uptake inhibition assay for the serotonin transporter was conducted in rat brain synaptosomes as described elsewhere with minor modifications (Rothman et al., Synapse 39, 32-41 (2001)). Freshly removed whole brain minus cerebellum and caudate was homogenized in 10% ice-cold sucrose with 12 strokes of a hand-held Potter-Elvehjem homogenizer followed by centrifugation at 1000×g for 10 min. The supernatants were saved on ice and used immediately. Transporter activity at SERT was assessed using 5 nM [^3H]serotonin. The assay buffer was Krebs-phosphate buffer containing 154.4 mM NaCl, 2.9 mM KCl, 1.1 mM CaCl2, 0.83 mM MgCl2, 5 mM glucose, 1 mg/mL ascorbic acid, and 50 μM pargyline. […] Uptake inhibition assays were conducted at 25° C. and were initiated by adding 100 μL of tissue to 900 μL assay buffer containing test drug and [^3H]serotonin. Test drugs were diluted in assay buffer containing 1 mg/mL bovine serum albumin. Nonspecific uptake was measured by incubating in the presence of 10 μM indatraline. The reactions were stopped after 30 min by rapid vacuum filtration with a cell harvester (BRANDEL) over GF/B filters (Whatman) presoaked in wash buffer maintained at 25° C. (10 mM Tris-HCl, pH 7.4/150 mM NaCl). Filters were rinsed with 6 mL wash buffer and retained tritium was quantified by a MicroBeta liquid scintillation counter (PerkinElmer) after overnight extraction in 0.6 mL of liquid scintillation cocktail (Cytoscint, ICN). The data from three experiments were pooled and fit to a dose-response curve equation (using Kaleidagraph), to yield an Emax and EC50 value.

[2] = target: norepinephrine transporter (NET) (Rattus norvegicus, UniProt Q63380); experiment: [3H]norepinephrine (NE) uptake inhibition in rat brain synaptosomes; conditions: mean ± S.D.; n = 3
Chain of norepinephrine transporter (NET) (Q63380 1-617): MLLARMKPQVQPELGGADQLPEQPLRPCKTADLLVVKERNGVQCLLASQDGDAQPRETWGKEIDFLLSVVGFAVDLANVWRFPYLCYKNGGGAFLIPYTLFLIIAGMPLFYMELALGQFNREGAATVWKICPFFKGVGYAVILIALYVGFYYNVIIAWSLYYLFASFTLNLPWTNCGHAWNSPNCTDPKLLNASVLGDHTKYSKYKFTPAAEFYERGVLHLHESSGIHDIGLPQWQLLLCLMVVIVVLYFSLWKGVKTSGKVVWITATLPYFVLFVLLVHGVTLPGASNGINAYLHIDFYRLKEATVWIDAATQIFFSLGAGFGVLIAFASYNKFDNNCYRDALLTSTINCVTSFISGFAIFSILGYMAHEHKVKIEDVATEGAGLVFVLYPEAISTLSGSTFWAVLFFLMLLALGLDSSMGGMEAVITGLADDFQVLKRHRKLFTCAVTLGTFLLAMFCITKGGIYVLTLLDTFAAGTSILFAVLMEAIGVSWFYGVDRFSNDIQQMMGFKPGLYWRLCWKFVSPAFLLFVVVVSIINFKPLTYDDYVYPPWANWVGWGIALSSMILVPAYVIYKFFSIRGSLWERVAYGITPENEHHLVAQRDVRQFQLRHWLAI
Method: Uptake inhibition assay for the norepinephrine transporter was conducted in rat brain synaptosomes as described elsewhere with minor modifications (Rothman et al., Synapse 39, 32-41 (2001)). Freshly removed whole brain minus cerebellum and caudate was homogenized in 10% ice-cold sucrose with 12 strokes of a hand-held Potter-Elvehjem homogenizer followed by centrifugation at 1000×g for 10 minutes. The supernatants were saved on ice and used immediately. Transporter activity at NET was assessed using 10 nM [^3H]norepinephrine. The assay buffer was Krebs-phosphate buffer containing 154.4 mM NaCl, 2.9 mM KCl, 1.1 mM CaCl2, 0.83 mM MgCl2, 5 mM glucose, 1 mg/mL ascorbic acid, and 50 μM pargyline. […] Uptake inhibition assays were conducted at 37° C. and were initiated by adding 100 μL of tissue to 900 μL assay buffer containing test drug and [^3H]norepinephrine. Test drugs were diluted in assay buffer containing 1 mg/mL bovine serum albumin. Nonspecific uptake was measured by incubating in the presence of 10 μM indatraline. The reactions were stopped after 10 minutes by rapid vacuum filtration with a cell harvester (BRANDEL) over GF/B filters (Whatman) presoaked in wash buffer maintained at 25° C. (10 mM Tris-HCl, pH 7.4/150 mM NaCl). Filters were rinsed with 6 mL wash buffer and retained tritium was quantified by a MicroBeta liquid scintillation counter (PerkinElmer) after overnight extraction in 0.6 mL of liquid scintillation cocktail (Cytoscint, ICN). The data from three experiments were pooled and fit to a dose-response curve equation (using Kaleidagraph), to yield an Emax and EC50 value.

[3] = target: dopamine transporter (DAT) (Rattus norvegicus (Rat), UniProt P23977); experiment: [3H]dopamine (DA) uptake inhibition in rat brain (caudate) synaptosomes; conditions: for DA Uptake Emax / EC50: rat caudate synaptosomes, 5 nM [3H]dopamine, mean ± SD
Chain of dopamine transporter (DAT) (P23977 whole entry): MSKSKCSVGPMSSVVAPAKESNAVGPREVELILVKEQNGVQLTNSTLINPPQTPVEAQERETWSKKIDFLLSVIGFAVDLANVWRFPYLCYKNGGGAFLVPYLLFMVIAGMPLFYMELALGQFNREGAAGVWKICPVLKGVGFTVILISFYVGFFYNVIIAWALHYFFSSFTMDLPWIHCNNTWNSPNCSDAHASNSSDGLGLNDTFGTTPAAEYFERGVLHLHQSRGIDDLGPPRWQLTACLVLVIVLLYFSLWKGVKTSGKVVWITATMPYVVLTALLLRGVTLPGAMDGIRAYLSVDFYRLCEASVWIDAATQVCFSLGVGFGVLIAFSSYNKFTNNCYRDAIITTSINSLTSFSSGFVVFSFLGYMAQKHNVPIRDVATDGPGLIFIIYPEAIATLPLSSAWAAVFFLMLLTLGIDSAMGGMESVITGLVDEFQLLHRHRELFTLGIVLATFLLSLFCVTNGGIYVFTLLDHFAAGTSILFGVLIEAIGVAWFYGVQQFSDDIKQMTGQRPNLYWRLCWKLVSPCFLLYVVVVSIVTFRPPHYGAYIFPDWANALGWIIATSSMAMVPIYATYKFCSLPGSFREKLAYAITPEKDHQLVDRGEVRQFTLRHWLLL
Method: Uptake inhibition assay for the dopamine transporter was conducted in rat brain synaptosomes as described elsewhere with minor modifications (Rothman et al., Synapse 39, 32-41 (2001)). Freshly removed caudate was homogenized in 10% ice-cold sucrose with 12 strokes of a hand-held Potter-Elvehjem homogenizer followed by centrifugation at 1000×g for 10 min. The supernatants were saved on ice and used immediately. Transporter activity was assessed using 5 nM [^3H]dopamine. The assay buffer was Krebs-phosphate buffer containing 154.4 mM NaCl, 2.9 mM KCl, 1.1 mM CaCl2, 0.83 mM MgCl2, 5 mM glucose, 1 mg/mL ascorbic acid, and 50 μM pargyline. The selectivity of the uptake assay for DAT was optimized by including 100 nM citalopram and 100 nM desipramine as blockers of SERT and NET in the sucrose solution and assay buffer. Uptake inhibition assays were conducted at 25° C. and were initiated by adding 100 μl of tissue to 900 μL assay buffer containing test drug and [^3H]dopamine. Test drugs were diluted in assay buffer containing 1 mg/mL bovine serum albumin. Nonspecific uptake was measured by incubating in the presence of 10 μM indatraline. The reactions were stopped after 15 minutes by rapid vacuum filtration with a cell harvester (BRANDEL) over GF/B filters (Whatman) presoaked in wash buffer maintained at 25° C. (10 mM Tris-HCl, pH 7.4/150 mM NaCl). Filters were rinsed with 6 mL wash buffer and retained tritium was quantified by a MicroBeta liquid scintillation counter (PerkinElmer) after overnight extraction in 0.6 mL of liquid scintillation cocktail (Cytoscint, ICN). The data from three experiments were pooled and fit to a dose-response curve equation (using Kaleidagraph), to yield an Emax and EC50 value.
All of the test compounds were synthesized as described herein. Next, 8-point dose-response curves were generated for each compound (1-20,000 nM) in the [^3H]DA uptake assay. The data from three experiments were pooled and fit to a dose-response curve equation (using KaleidaGraph; Synergy Software, Reading, Pa.) to yield an Emax and IC50 value. […] Selected compounds were also tested for their ability to inhibit [^3H]WIN35428 binding to rat caudate DAT.

SMILES | DA Uptake Emax [3] [% I] | EC50 [3] [nM] | also measured
COC(=O)[C@H]1[C@@H](OC(=O)c2ccccc2)C[C@@H]2CC[C@H]1N2C [Cocaine, reference compound] | – | – | SERT Uptake Emax [1]: 98 ± 2%; NET Uptake Emax [2]: 102 ± 2%
CS(=O)(=O)Nc1ccc(-c2nc(NCC(c3ccccc3)N3CCCCC3)c3ccccc3n2)cc1 (stereo not drawn) [Compound 17, N-(4-(4-((2-phenyl-2-(piperidin-1-yl)ethyl)amino)quinazolin-2-yl)phenyl)methanesulfonamide] | 83 ± 5 | 62 ± 20 | –
CN(C)c1ccc(-c2nc(NCCc3ccccc3)c3ccccc3n2)cc1 [Compound 36, 2-(4-(dimethylamino)phenyl)-N-phenethylquinazolin-4-amine] | 100 ± 1 | 156 ± 12 | Efficacy of [3H]DA (DAT) uptake inhibition, in words [3]: fully inhibits; also recorded: full-efficacy; One-Site Emax ([3]; [3H]DA uptake, one-component fit): 100 ± 1.5 % I; Two-Site Emax-1 ([3]; [3H]DA uptake, two-component fit, component 1): 76 ± 54 % I; Two-Site Emax-2 ([3]; [3H]DA uptake, two-component fit, component 2): 27 ± 53 % I
CS(=O)(=O)Nc1ccc(-c2nc(NCCc3ccccc3)c3ccccc3n2)cc1 [Compound 37, N-(4-(4-(phenethylamino)quinazolin-2-yl)phenyl)methanesulfonamide] | 86 ± 6 | 159 ± 54 | –
Cc1cc(NS(C)(=O)=O)ccc1-c1nc(NCC(c2ccncc2)c2ccncc2)c2ccccc2n1 [Compound 47, N-(4-(4-((2,2-di(pyridin-4-yl)ethyl)amino)quinazolin-2-yl)-3-methylphenyl)methanesulfonamide] | 67 ± 4 | 84 ± 25 | –
CS(=O)(=O)Nc1ccc(-c2nc(NCC(c3ccccn3)c3ccc[nH]3)c3ccccc3n2)cc1 (stereo not drawn) [Compound 32, N-(4-(4-((2-(pyridin-2-yl)-2-(1H-pyrrol-2-yl)ethyl)amino)quinazolin-2-yl)phenyl)methanesulfonamide] | 73 ± 3 | 379 ± 80 | –
CN(C)c1ccc(-c2nc(NCC(c3cccnc3)c3ccc[nH]3)c3ccccc3n2)cc1 (stereo not drawn) [Compound 31, 2-(4-(dimethylamino)phenyl)-N-(2-(pyridin-3-yl)-2-(1H-pyrrol-2-yl)ethyl)quinazolin-4-amine] | 85 ± 4 | 47 ± 12 | –
CS(=O)(=O)Nc1ccc(-c2nc(NCC(c3ccccc3)n3ccnc3)c3ccccc3n2)cc1 (stereo not drawn) [Compound 12, N-(4-(4-((2-(1H-imidazol-1-yl)-2-phenylethyl)amino)quinazolin-2-yl)phenyl)methanesulfonamide] | 70 ± 3 | 100 ± 22 | –
CN(C)c1ccc(-c2nc(NCC(c3ccccc3)c3ccc[nH]3)c3ccccc3n2)cc1 (stereo not drawn) [Compound 14, 2-(4-(dimethylamino)phenyl)-N-(2-phenyl-2-(1H-pyrrol-2-yl)ethyl)quinazolin-4-amine] | 77 ± 4 | 5.6 ± 2.1 | –
Cc1ccc(-c2nc(NCC(c3ccccc3)c3cccc(Cl)n3)c3ccccc3n2)cc1 (stereo not drawn) [Compound 1, N-(2-(6-chloropyridin-2-yl)-2-phenylethyl)-2-(p-tolyl)quinazolin-4-amine] | 100 | 380 | –
CS(=O)(=O)Nc1ccc(-c2nc(NCC(Cc3ccccc3)c3ccccc3)c3ccccc3n2)cc1 (stereo not drawn) [Compound 27, N-(4-(4-((2,3-diphenylpropyl)amino)quinazolin-2-yl)phenyl)methanesulfonamide] | 76 ± 2 | 58 ± 9 | –
CS(=O)(=O)Nc1ccc(-c2nc(NCC(c3ccccc3)c3ncccn3)c3ccccc3n2)cc1 (stereo not drawn) [Compound 8, N-(4-(4-((2-phenyl-2-(pyrimidin-2-yl)ethyl)amino)quinazolin-2-yl)phenyl)methanesulfonamide] | 88 ± 3 | 477 ± 75 | –
CN(C)c1ccc(-c2nc(NCC(c3ccccc3)c3ncccn3)c3ccccc3n2)cc1 (stereo not drawn) [Compound 9, 2-(4-(dimethylamino)phenyl)-N-(2-phenyl-2-(pyrimidin-2-yl)ethyl)quinazolin-4-amine] | 91 ± 3 | 117 ± 22 | –
CN(C)c1ccc(-c2nc(NCC(c3ccccc3)c3ccccn3)c3ccccc3n2)cc1 (stereo not drawn) [Compound 3, 2-(4-(dimethylamino)phenyl)-N-(2-phenyl-2-(pyridin-2-yl)ethyl)quinazolin-4-amine] | 91 ± 4 | 22 ± 6 | –
CS(=O)(=O)Nc1ccc(-c2nc(NC(CCc3ccccc3)c3ccccc3)c3ccccc3n2)cc1 (stereo not drawn) [Compound 42, N-(4-(4-((1,3-diphenylpropyl)amino)quinazolin-2-yl)phenyl)methanesulfonamide] | 72 ± 2 | 71 ± 11 | –
CC(C)C(CNc1nc(-c2ccc(NS(C)(=O)=O)cc2)nc2ccccc12)c1ccccc1 (stereo not drawn) [Compound 45, N-(4-(4-((3-methyl-2-phenylbutyl)amino)quinazolin-2-yl)phenyl)methanesulfonamide] | 78 ± 4 | 20 ± 6 | –
CN(C)c1ccc(-c2nc(NCC(c3ccccc3)n3ccnc3)c3ccccc3n2)cc1 (stereo not drawn) [Compound 13, N-(2-(1H-imidazol-1-yl)-2-phenylethyl)-2-(4-(dimethylamino)phenyl)quinazolin-4-amine] | 86 ± 3 | 138 ± 21 | –
CS(=O)(=O)Nc1ccc(-c2nc(NCC(Oc3ccccc3)c3ccccc3)c3ccccc3n2)cc1 (stereo not drawn) [Compound 49, N-(4-(4-((2-phenoxy-2-phenylethyl)amino)quinazolin-2-yl)phenyl)methanesulfonamide] | 67 ± 2 | 30 ± 5 | –
CN(C)c1ccc(-c2nc(NCC(c3ccccc3)N3CCCC3)c3ccccc3n2)cc1 (stereo not drawn) [Compound 21, 2-(4-(dimethylamino)phenyl)-N-(2-phenyl-2-(pyrrolidin-1-yl)ethyl)quinazolin-4-amine] | 92 ± 4 | 112 ± 26 | –
